Data: PMC6260593, “Kaempferol and Kaempferol Rhamnosides with Depigmenting and Anti-Inflammatory Properties” (Molecules, 2011)
Like-named read-outs stand apart in the source and are kept apart here.

Columns and labels:
B16 melanoma cells [1] = assay: Depigmenting activity (melanin content) in B16 melanoma cells; assay type: cell-based; details: for IC50: Mus musculus, 120 h, 5 days, melanin content, read-out: Inhibitory activity [IC50] Depigmentation
Experimental: The cell pellets were then dissolved in 1 N NaOH in 10% DMSO (500 μL) at 80 °C for 1 h. The relative melanin content was determined by measuring the absorbance at 475 nm with an ELISA reader (Molecular Devices Corp., Menlo Park, CA, USA). A standard synthetic melanin curve (0–500 μg⁄mL) was prepared in triplicate for each experiment.

[2] = Cytotoxicity towards B16 melanoma cells; assay type: cell-based; details: mouse, read-out: Inhibitory activity [IC50] Cytotoxicity
[3] = test system: NO production in LPS-activated RAW264.7 cells; assay: Inhibition of NO production induced by LPS in RAW264.7 cells (Griess); assay type: cell-based; details: Mus musculus, LPS 1 μg/mL, 24 h, read-out: Inhibitory activity [IC50] NO
Experimental: The nitrite in the culture supernatants was measured by adding Griess reagent (100 μL, 1% sulfanilamide and 0.1% N-[1-naphthyl]-ethylenediamine dihydrochloride in 5% phosphoric acid) to samples of the medium (100 μL) for 10 min at room temperature. The OD at 570 nm (OD570) was measured using a Spectramax 250 microplate reader (Molecular Devices). A standard curve of NO was made with sodium nitrite.

in vitro = details: mouse
Experimental: (§1) The cytotoxic effect of kojyl thioether derivatives was then evaluated by a conventional MTT assay. At 3 h prior to culture termination, MTT solution (10 μL, 5 mg/mL in a phosphate buffered-saline, pH 7.4) was added and the cells were continuously cultured until termination. The incubation was halted by the addition of 15% sodium dodecyl sulfate into each well, solubilizing formazan. The absorbance at 570 nm (OD570–630) was measured by a Spectramax 250 microplate reader.

[4] = test system: NF-κB-mediated luciferase activity; assay: NF-κB-mediated luciferase assay in HEK293 cells; assay type: cell-based; details: HEK293 cells transfected with NF-κB-Luc, PMA 0.1 μM, 24 h, read-out: Inhibitory activity [IC50] NF-κB-mediated luciferase activity
Experimental: HEK293 cells (1 × 10^6 cells/mL) were transfected with plasmids containing NF-κB-Luc, (1 μg/mL each) as well as β-galactosidase (0.5 μg/mL) using the PEI method in a 12-well plate for 48 h, and they were treated with testing compounds in the presence or absence of PMA (0.1 μM) for 24 h. Luciferase assay was performed using the Luciferse Assay System (Promega).

Tyrosinase = test system: Tyrosinase; set-up: method as in PMID 21050756; details: previously reported, cited from earlier work; for IC50: means of three experiments, read-out: Inhibitory activity [IC50] Tyrosinase
B16 melanoma cells [5] = assay: Cytotoxicity towards B16 melanoma cells; assay type: cell-based
RAW264.7 cells = assay: Cytotoxicity in RAW264.7 cells (MTT)
Experimental: as §1

iNOS mRNA = assay: Expression of iNOS mRNA in LPS-activated RAW 264.7 cells (RT-PCR); assay type: cell-based; details: 25–100 μM, LPS 1 μg/mL for 6 h
Experimental: RAW 264.7 cells were treated with different concentrations of compound 1 and 2 (25–100 μM) and then stimulated with LPS (1 μg/mL) for 6 h.
The total RNA from the LPS treated-RAW264.7 cells was prepared by adding TRIzol Reagent (Gibco BRL), as per the manufacturer’s instructions. Real-time PCR reactions were conducted using MuLV reverse transcriptase. The primers (Bioneer, Daejeon, Korea) were used as previously reported.

Structure (SMILES) | IC50 (B16 melanoma cells [1]) [µM] | IC50 [3] [µM] | IC50 at 24 h (in vitro) [µM] | IC50 ([4]; Homo sapiens) [µM] | IC50 [4] [µM] | IC50 [2] [µM] | Tyrosinase inhibitory activity (in words) (Tyrosinase) | Depigmenting inhibitory activity (in words) (B16 melanoma cells [1]) | Cytotoxicity towards B16 melanoma cells (in words) (B16 melanoma cells [5]) | IC50 at 24 h (in vitro; RAW264.7 cells) [µM] | Cytotoxicity in the NO assay cells (in words) (RAW264.7 cells; RAW264.7 cells) | Expression of iNOS mRNA (in words) (iNOS mRNA) | IC50 (Tyrosinase) [µM] | Cytotoxicity in the NO assay cells (in words) (RAW264.7 cells)
C[C@@H]1O[C@@H](Oc2c(-c3ccc(O)cc3)oc3cc(O)cc(O)c3c2=O)[C@H](O)[C@H](O)[C@H]1O [Afzelin (3), kaempferol 3-O-α-L-rhamnopyranoside] | > 100 | > 100 | > 100 | > 100 | – | > 100 | showed no inhibitory activities | – | – | – | – | – | – | –
C[C@@H]1O[C@@H](Oc2cc(O)c3c(=O)c(O[C@@H]4O[C@@H](C)[C@H](O)[C@@H](O)[C@H]4O)c(-c4ccc(O)cc4)oc3c2)[C@H](O)[C@H](O)[C@H]1O [Kaempferitrin (4), kaempferol-3,7-O-α-dirhamnoside] | > 100 | > 100 | > 100 | > 100 | – | > 100 | showed no inhibitory activities | – | – | – | – | – | – | –
O=c1c(O)c(-c2ccc(O)cc2)oc2cc(O)cc(O)c12 [Kaempferol (1), kaempferol] | 37.66 ± 0.1 | 15.4 ± 0.2 | – | 90.3 ± 5.1 | – | 25.6 ± 0.9 | showed tyrosinase inhibitory activities | showed inhibitory activity | showed cytotoxicity towards B16 melanoma cells | > 100 | without cytotoxicity | suppressed the expression of iNOS mRNA in a dose-dependent manner | 171.4 ± 0.9 | –
CC(=O)CCCCn1c(=O)c2c(ncn2C)n(C)c1=O [Pentoxifylline, pentoxifylline, reference compound] | – | 446 ± 1.1 | – | – | – | – | – | – | – | > 1000 | – | – | – | –

More lines, main results first:

IC50 (B16 melanoma cells [1]) [µM] | IC50 [3] [µM] | IC50 at 24 h (in vitro) [µM] | IC50 ([4]; Homo sapiens) [µM] | IC50 [4] [µM] | Structure (SMILES) | IC50 [2] [µM] | Tyrosinase inhibitory activity (in words) (Tyrosinase) | Depigmenting inhibitory activity (in words) (B16 melanoma cells [1]) | Cytotoxicity towards B16 melanoma cells (in words) (B16 melanoma cells [5]) | IC50 at 24 h (in vitro; RAW264.7 cells) [µM] | Cytotoxicity in the NO assay cells (in words) (RAW264.7 cells; RAW264.7 cells) | Expression of iNOS mRNA (in words) (iNOS mRNA) | IC50 (Tyrosinase) [µM] | Cytotoxicity in the NO assay cells (in words) (RAW264.7 cells)
171 ± 2.1 | – | – | – | – | OC[C@H]1O[C@@H](Oc2ccc(O)cc2)[C@H](O)[C@@H](O)[C@@H]1O [Arbutin, reference compound] | > 200 | – | – | – | – | – | – | – | –
– | – | – | – | 11.5 ± 0.1 | Cc1ccc(S(=O)(=O)/C=C/C#N)cc1 [BAY11-7082, reference compound] | – | – | – | – | – | – | – | – | –
39.5 ± 0.4 | 37.7 ± 2 | > 100 | 36.2 ± 3.3 | – | C[C@@H]1O[C@@H](Oc2cc(O)c3c(=O)c(O)c(-c4ccc(O)cc4)oc3c2)[C@H](O)[C@H](O)[C@H]1O [α-Rhamnoisorobin (2), kaempferol 7-O-α-L-rhamnopyranoside] | 22.9 ± 1.3 | showed tyrosinase inhibitory activities | showed inhibitory activity | showed cytotoxicity towards B16 melanoma cells | – | – | suppressed the expression of iNOS mRNA in a dose-dependent manner | > 400 | without cytotoxicity
